The source of these data is ChEMBL document CHEMBL1148071, “New cytotoxic peroxylactones from the marine sponge, Plakinastrella onkodes” (J Nat Prod, 1994).

A word on the IC50: it is the concentration at which inhibition is half-maximal. Low values mean greater potency in that assay, high ones weaker potency in that assay.

One test concerns A549. In words: Cytotoxicity against human A549 cells. The class given is functional, cell-based.
The test system of another test is P388. The experiment in a line: Cytotoxicity against mouse P388 cells. The class given is functional, cell-based.
Test [1] in a line: Induction of cell adhesion in mouse EL-4.IL-2 cells. The class given is functional, cell-based.
Test [2] deals with T1, Protein kinase C alpha type (Homo sapiens, UniProt P17252). The experiment in a line: Agonist activity at PKCalpha at 50 ug/ml. The class given is functional.
Test [3] deals with T2, Protein kinase C beta type (Homo sapiens, UniProt P05771). The experiment in a line: Agonist activity at PKCbeta1 at 50 ug/ml. The class given is functional.
Target sequence in this assay (P05771 2-671 limits assumed): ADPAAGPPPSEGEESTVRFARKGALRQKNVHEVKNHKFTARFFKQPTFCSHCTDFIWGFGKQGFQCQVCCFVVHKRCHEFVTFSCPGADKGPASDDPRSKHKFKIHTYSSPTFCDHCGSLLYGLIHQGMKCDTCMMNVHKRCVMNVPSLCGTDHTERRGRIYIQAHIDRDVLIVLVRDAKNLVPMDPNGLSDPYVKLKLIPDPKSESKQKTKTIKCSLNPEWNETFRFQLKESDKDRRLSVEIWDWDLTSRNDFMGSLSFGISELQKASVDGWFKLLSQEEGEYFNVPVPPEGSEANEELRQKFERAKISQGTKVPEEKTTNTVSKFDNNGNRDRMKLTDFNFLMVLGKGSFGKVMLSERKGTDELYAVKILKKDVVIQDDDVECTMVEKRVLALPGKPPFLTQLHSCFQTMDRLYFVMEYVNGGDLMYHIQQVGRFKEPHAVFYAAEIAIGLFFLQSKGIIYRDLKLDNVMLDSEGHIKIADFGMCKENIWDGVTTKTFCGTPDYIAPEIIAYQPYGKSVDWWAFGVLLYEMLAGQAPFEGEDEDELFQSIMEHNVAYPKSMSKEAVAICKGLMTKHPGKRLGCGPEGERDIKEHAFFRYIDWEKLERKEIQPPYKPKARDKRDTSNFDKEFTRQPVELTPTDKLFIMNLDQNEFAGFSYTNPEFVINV
For test [4], the target named is T2, Protein kinase C beta type. The experiment in a line: Agonist activity at PKCbeta2 at 50 ug/ml. The class given is functional.
Target sequence in this assay (P05771 2-671 limits assumed): as above
In test [5] the target is T3, Protein kinase C delta type (Homo sapiens, UniProt Q05655). In words: Agonist activity at PKCdelta at 50 ug/ml. The class given is functional.
Target sequence in this assay (Q05655 whole entry, looked up): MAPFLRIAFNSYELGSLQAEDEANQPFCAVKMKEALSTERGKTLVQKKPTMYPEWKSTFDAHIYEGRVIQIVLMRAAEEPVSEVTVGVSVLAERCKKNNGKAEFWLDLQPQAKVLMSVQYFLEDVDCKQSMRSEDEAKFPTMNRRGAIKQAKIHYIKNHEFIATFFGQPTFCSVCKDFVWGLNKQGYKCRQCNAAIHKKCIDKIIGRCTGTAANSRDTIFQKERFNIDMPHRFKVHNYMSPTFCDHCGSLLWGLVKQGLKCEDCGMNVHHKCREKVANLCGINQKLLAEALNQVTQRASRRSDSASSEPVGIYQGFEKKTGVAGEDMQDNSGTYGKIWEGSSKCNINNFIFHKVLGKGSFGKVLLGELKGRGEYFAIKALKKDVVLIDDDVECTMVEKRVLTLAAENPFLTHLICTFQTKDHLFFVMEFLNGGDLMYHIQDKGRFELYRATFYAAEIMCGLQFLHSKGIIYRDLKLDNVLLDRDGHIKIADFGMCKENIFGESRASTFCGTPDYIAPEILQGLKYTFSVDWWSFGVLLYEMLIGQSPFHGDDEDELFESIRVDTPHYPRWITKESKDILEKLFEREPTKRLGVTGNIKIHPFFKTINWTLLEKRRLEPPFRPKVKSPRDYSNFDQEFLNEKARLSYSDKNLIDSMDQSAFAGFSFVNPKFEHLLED
In test [6] the target is T4, Protein kinase C epsilon type (Homo sapiens) (UniProt Q02156).
T4 sequence (whole entry): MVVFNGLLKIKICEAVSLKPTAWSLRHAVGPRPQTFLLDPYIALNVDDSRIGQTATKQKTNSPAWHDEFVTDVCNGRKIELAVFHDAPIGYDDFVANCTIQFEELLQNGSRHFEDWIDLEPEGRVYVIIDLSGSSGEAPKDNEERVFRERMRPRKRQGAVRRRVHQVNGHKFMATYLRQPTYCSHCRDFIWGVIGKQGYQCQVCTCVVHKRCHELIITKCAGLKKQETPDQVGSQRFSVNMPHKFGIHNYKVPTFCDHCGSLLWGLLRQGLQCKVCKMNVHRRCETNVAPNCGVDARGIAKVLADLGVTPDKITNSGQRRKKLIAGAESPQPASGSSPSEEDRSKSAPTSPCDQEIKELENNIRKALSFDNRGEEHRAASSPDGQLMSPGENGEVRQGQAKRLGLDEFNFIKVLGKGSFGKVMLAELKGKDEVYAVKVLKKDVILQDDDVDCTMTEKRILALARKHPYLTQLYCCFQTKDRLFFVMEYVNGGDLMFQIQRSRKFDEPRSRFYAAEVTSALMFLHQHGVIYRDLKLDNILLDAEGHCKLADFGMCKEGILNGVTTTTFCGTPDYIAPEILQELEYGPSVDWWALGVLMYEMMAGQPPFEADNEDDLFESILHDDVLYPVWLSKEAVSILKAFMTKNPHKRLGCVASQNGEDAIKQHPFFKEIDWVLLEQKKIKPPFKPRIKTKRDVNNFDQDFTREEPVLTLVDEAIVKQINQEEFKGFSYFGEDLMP
In words: Agonist activity at PKCepsilon at 50 ug/ml. The class given is functional.

Test [7] has as its target Protein kinase C gamma type (Homo sapiens) (UniProt P05129). The experiment in a line: Agonist activity at PKCgamma at 50 ug/ml. The class given is functional.
A short description of test [8]: Inhibition of cell adhesion in mouse EL-4.IL-2 cells. The class given is functional, cell-based.
Test [9] concerns the target T1, Protein kinase C alpha type. In words: Inhibition of PKCalpha.
For test [10], the target named is T2, Protein kinase C beta type. The experiment in a line: Inhibition of PKCbeta1.
Target sequence in this assay (P05771 whole entry): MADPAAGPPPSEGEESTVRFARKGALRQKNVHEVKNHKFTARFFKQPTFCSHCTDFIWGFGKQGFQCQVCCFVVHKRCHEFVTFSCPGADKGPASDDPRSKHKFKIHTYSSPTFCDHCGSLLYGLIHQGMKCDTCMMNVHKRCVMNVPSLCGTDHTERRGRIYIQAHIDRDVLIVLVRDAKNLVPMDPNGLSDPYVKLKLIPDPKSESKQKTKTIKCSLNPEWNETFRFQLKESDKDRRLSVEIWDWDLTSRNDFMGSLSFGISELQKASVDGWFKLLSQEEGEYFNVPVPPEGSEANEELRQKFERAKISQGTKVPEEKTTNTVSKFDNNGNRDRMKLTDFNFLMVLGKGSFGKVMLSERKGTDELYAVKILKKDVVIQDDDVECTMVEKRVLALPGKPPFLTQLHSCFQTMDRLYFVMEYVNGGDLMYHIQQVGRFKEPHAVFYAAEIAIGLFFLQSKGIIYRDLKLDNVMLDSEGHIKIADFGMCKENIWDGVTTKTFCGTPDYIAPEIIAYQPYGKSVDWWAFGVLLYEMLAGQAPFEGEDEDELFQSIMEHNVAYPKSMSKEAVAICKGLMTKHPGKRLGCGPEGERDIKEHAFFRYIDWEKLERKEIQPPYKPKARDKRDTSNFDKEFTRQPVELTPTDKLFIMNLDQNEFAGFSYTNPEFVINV
The target in test [11] is T2, Protein kinase C beta type. The experiment in a line: Inhibition of PKCbeta2.
Target sequence in this assay (P05771 whole entry): as above
The target of test [12] is T3, Protein kinase C delta type. The experiment in a line: Inhibition of PKCdelta.
Target sequence in this assay (Q05655 whole entry): as the sequence (Q05655 whole entry, looked up) above

Converted amounts (≈) assume the structure as drawn.

Regarding `CC(CCCCCCCCc1ccccc1)C[C@]1(C)C[C@]2(C)OC(=O)C[C@@H]2OO1` (some centres undefined) [PLAKORTOLIDE B], the IC50 in the test with A549 turned out to be 1.3 mg/L (≈ 3.23 µM); with P388, 0.4 mg/L (≈ 0.994 µM); in [1], 4.4 mg/L (≈ 10.9 µM). The Activity in test [2] is -19%; in [3], -13%; in test [4], -27%; in test [5], -9%; in [6], -38%; in test [7], -9%.

Take `CC(CCCCCCc1ccccc1)CC(C)C[C@]1(C)C[C@]2(C)OC(=O)C[C@@H]2OO1` (some centres undefined) [PLAKORTOLIDE D]: the IC50 in the test on A549 turned out to be 3.8 mg/L (≈ 9.12 µM); with P388, 0.8 mg/L (≈ 1.92 µM); in [8], 15.8 mg/L (≈ 37.9 µM).

Take `COC(=O)C[C@@]1(C)C[C@](C)(CC(C)CCCCCCc2ccccc2)OO1` (some centres undefined) [EPIPLAKINIC ACID E METHYL ESTER]: the IC50 turned out to be 2 mg/L (≈ 5.31 µM) in the test on A549, 2.5 mg/L (≈ 6.64 µM) in the test on P388 and 4.6 mg/L (≈ 12.2 µM) in [8].

With `CCCCCCCCCCCCCCCC[C@@]1(OC)C=C[C@@H](CC(=O)OC)OO1` [CHONDRILLIN], the IC50 in test [9] is 87.2 µM; in test [10], 119 µM; in test [11], 119 µM; in test [12] it was 55.7 µM.
